1 compound from US20100204258A1, “METHODS AND COMPOSITIONS FOR MODULATING INSULIN SECRETION AND GLUCOSE METABOLISM” (The Trustees of Columbia University in the City of New York, priority 2007, published 2010) can be followed below.

The subject of one experiment is human islets. In words: Glucose-stimulated insulin secretion of purified human cadaveric islets ex vivo. In kind it is cell-based. The conditions noted are these: absence of high glucose stimulation; data not shown. The method, then:
Human islet tissue and glucose-stimulated insulin secretion. The islet tissue used in these studies was obtained with institutional review board approval. Pancreas digestion and islet isolation were performed using minor modifications of the Edmonton purification protocol. (Shapiro, […] al. “Islet […] in seven patients with type I diabetes mellitus using a glucocortoid-free immunosuppressive regimen.” New England Journal of Medicine 343(4):230-8, (2000)) The determination of islet cell mass, viability, and purity were also performed. Purified islets were cultured in CMRL 1066 culture media with 10% fetal bovine serum at 37° C. in humidified air (5% CO2) for 18 to 24 hours. The human islet insulin secretory response was performed according to a procedure described by the Edmonton group. (Id.) Briefly, after an overnight culture, islets were incubated with either low or high concentrations of glucose for 2 hours at 37° C. and 5% CO2. The supernatant was collected for insulin measurement. Insulin concentrations in these experiments were analyzed with a human insulin enzyme-linked immunosorbent assay (ELISA) kit (ALPCO Insulin ELISA kit, Windham, N.H.). In some experiments TBZ, DTBZ or epinephrine was added to the cultures before glucose stimulation.

Experiment [1] deals with dopamine content of brain and pancreas tissue. As to the kind of experiment: Dopamine content of brain and pancreas extracts by ELISA after i.v. TBZ. In kind it is in vivo, rat. As for the experimental part: Dopamine measurements. Anaesthetized rats received an intravenous injection of TBZ and were sacrificed one hour later. Euthanasia was performed by exsanguination of the anesthetized animal. Brain and pancreas were harvested as quickly as possible and frozen at −80° C. until use. Frozen tissue was pulverized in a liquid nitrogen cooled mortar and extracted in 0.01 N HCl. The tissue extract was centrifuged at 10,000×g at 4° C. to remove debris and the total protein was estimated by reading the absorbance at 280 nm. The concentration of dopamine in the extract was estimated using an ELISA kit from Rocky Mountain Diagnostics (Colorado Springs, Colo.) per the manufacturer's instructions and normalized to the extract protein concentration.
(In general: An ELISA detects its analyte on a solid surface through an enzyme-linked reagent.)

In a further experiment the test system is diabetic Lewis rats. In words: IPGTT in streptozotocin-induced diabetic Lewis rats. In kind it is in vivo, rat. The method, then:
Experimental animals. All animal studies were reviewed and approved by the Institutional Animal Care and Use Committee (IACUC) at Columbia University's Medical School. All experiments were performed in accordance with the IACUC approved procedures. Normal male Lewis rats (100-400 grams) were obtained from Taconic (Taconic Inc., Germantown, N.Y.) and were housed under conditions of controlled humidity (55±5%), temperature (23±1° C.), and lighting (light on: 06.00-18.00 hours) with free access to standard laboratory rat chow and water. Rats were handled daily to minimize nonspecific stress for more than 7 days before the experiments began. In most experiments, it was necessary to measure blood glucose in fasting animals. For these groups, food was removed at the beginning of the light cycle, 6 hours before glucose levels were measured. Diabetes mellitus was induced by intraperitoneal injection of streptozotocin (Sigma Chemical Co., St. Louis, Mo.) (25 to 50 mg/kg) to animals (100 to 150 grams) that had been fasted 4 hours to enhance the effectiveness of STZ treatment.
The STZ solution was prepared fresh by dissolving it in 0.1 M citrate buffer (pH 5.5) and terminally sterile filtered. Control Lewis age and weight matched rats received a 0.5 ml/kg citrate vehicle alone via intraperitoneal injection. Sixty minutes prior to intraperitoneal glucose tolerance testing (IPGTT), anesthesia of male Lewis rats was induced with isoflurane (3-4% in oxygen) and maintained with 1-2% isoflurane in oxygen. Anaesthetized rats were administered TBZ at the indicated dose by intravenous (i.v.) injection using the penile vein. TBZ was dissolved in neat sterile dimethylsulfoxide (DMSO) and diluted (always more than 10 fold) in sterile saline. Rats received injections of vehicle alone (10% DMSO in saline) or reserpine (in saline). Animals recovered fully before receiving IPGTT.
Blood glucose, insulin, glucagon and intraperitoneal glucose tolerance tests measurements. Blood samples were collected from a superficial blood vessel in the tails of the rats following 6 hours of fasting between 12:00 noon and 2:00 p.m. The fasting blood glucose (BG) levels of the rats were measured using an Accu-Check blood glucose monitoring system (Roche Diagnostics, Sommerville, N.J.). […] BG concentrations were measured immediately on these samples and the remainder processed.
Plasma was immediately separated by centrifugation at 3000×g for 15 minutes and then stored at −20° C. until analysis. […] The area under the IPGTT glucose concentration×time curve (AUCIPGTT) was calculated by the trapezoidal rule. The area under the insulin or glucagon concentration×time curve (AUC INS or AUC GCG) was calculated in a similar manner.

Where [2] appears, read: 1.6 μg/gm body weight i.v., one hour later (FIG. 3).
The mark [3] stands for this setting: one hour after injection of 10 μg/gm body weight.

Molecules are shown by their SMILES.

As for `COc1cc2c(cc1OC)C1CC(=O)C(CC(C)C)CN1CC2` (stereo not drawn) [TBZ, tetrabenazine], the “insulin secretion of human islets” value in the experiment on human islets was “not observed”. In experiment [1] (setting [2]), the “dopamine content of brain tissue” value is on record as “reduces the dopamine content” and the “dopamine content of pancreas tissue” value is listed as “reduces the dopamine content”. Further, in experiment [1] (setting [3]), the “dopamine content of brain” value was “significantly depleted” and the “dopamine content of pancreas” value is “significantly depleted”. Besides, the “blood glucose excursion during IPGTT” value with diabetic Lewis rats (STZ-diabetic Lewis rats, 1.6 μg/gm, vs vehicle) was “reduces the blood glucose excursion”. In addition, in the experiment with diabetic Lewis rats (STZ-diabetic rats, around sixty minutes following i.v. injection), the “blood glucose levels before i.p. glucose challenge” value is given as “returned to control or near normal levels”. For the same compound, the “area under the curve in the IPGTT” value in the experiment with diabetic Lewis rats (STZ-diabetic rats, following glucose challenge) is reported as “smaller area under the curve”. Besides, in the experiment with diabetic Lewis rats (animals with initial untreated AUC IPGTT>50,000 minutes×mg/dl, data not shown), the glucose tolerance-enhancing effects result is given as “not observed”.
